Data as given in ChEMBL document CHEMBL5352488, “Development of novel S-N3-DABO derivatives as potent non-nucleoside reverse transcriptase inhibitors with improved potency and selectivity” (Eur J Med Chem, 2023).

Columns and labels:
[1] = tested on: Human immunodeficiency virus 1; experiment: Anti-HIV activity against drug resistant HIV-1 harboring F227L/V106A mutant infected in human MT4 cells assessed as inhibition of virus-induced cytopathic effect by MTT assay; assay type: functional, organism-based; settings: Human immunodeficiency virus 1, MT4
[2] = Selectivity index, ratio of CC50 for cytotoxicity against human MT4 cells assessed as reduction in cell viability by MTT assay to EC50 for anti-HIV activity against wild type HIV-1 IIIB infected in human MT4 cells assessed as inhibition of virus-induced cytopathic effect by MTT assay; assay type: toxicity, cell-based; settings: read-out: Ratio CC50/EC50
[3] = tested on: Human immunodeficiency virus 1; experiment: Anti-HIV activity against drug resistant HIV-1 harboring E138K mutant infected in human MT4 cells assessed as inhibition of virus-induced cytopathic effect by MTT assay; assay type: functional, organism-based; settings: Human immunodeficiency virus 1, MT4
[4] = tested on: Human immunodeficiency virus 1; experiment: Anti-HIV activity against drug resistant HIV-1 harboring Y181C mutant infected in human MT4 cells assessed as inhibition of virus-induced cytopathic effect by MTT assay; assay type: functional, organism-based; settings: Human immunodeficiency virus 1, MT4
[5] = tested on: Human immunodeficiency virus 1; experiment: Anti-HIV activity against wild type HIV-1 IIIB infected in human MT4 cells assessed as inhibition of virus-induced cytopathic effect by MTT assay; assay type: functional, organism-based; settings: Human immunodeficiency virus 1, IIIB
[6] = tested on: Human immunodeficiency virus 1; experiment: Anti-HIV activity against drug resistant HIV-1 harboring Y188L mutant infected in human MT4 cells assessed as inhibition of virus-induced cytopathic effect by MTT assay; assay type: functional, organism-based; settings: Human immunodeficiency virus 1, MT4
[7] = tested on: Human immunodeficiency virus 1; experiment: Anti-HIV activity against drug resistant HIV-1 harboring L100I mutant infected in human MT4 cells assessed as inhibition of virus-induced cytopathic effect by MTT assay; assay type: functional, organism-based; settings: Human immunodeficiency virus 1, MT4
[8] = Cytotoxicity against human MT4 cells assessed as reduction in cell viability by MTT assay; assay type: toxicity, cell-based
[9] = tested on: Human immunodeficiency virus 1; experiment: Anti-HIV activity against drug resistant HIV-1 harboring K103N mutant infected in human MT4 cells assessed as inhibition of virus-induced cytopathic effect by MTT assay; assay type: functional, organism-based; settings: Human immunodeficiency virus 1, MT4

| SMILES | EC50 [1] [µM] | selectivity ratio [2] | EC50 [3] [µM] | EC50 [4] [µM] | EC50 [5] [µM] | EC50 [6] [µM] | EC50 [7] [µM] | CC50 [8] [µM] | EC50 [9] [µM] |
| --- | --- | --- | --- | --- | --- | --- | --- | --- | --- |
| O=C1Nc2ccc(Cl)cc2[C@@](C#CC2CC2)(C(F)(F)F)O1 [EFAVIRENZ] | 0.28 |  |  |  |  |  |  |  |  |
| Cc1c(C(N=[N+]=[N-])c2ccc3ccccc3c2)nc(SC(C)C)[nH]c1=O (stereo unspecified) | 65 | 11 | 5.04 | 60.3 | 0.44 | 69.7 | 11.3 | 4.89 | > 154 |
| Cc1c(C(C#N)c2ccccc2)nc(SC(C)C)[nH]c1=O (stereo unspecified) | 21.4 |  | 0.87 |  | 0.37 | > 204 |  |  |  |
| CC(C)Sc1nc(C(N=[N+]=[N-])c2ccc(-c3ccccc3)cc2)c(C(C)C)c(=O)[nH]1 (stereo unspecified) |  | < 1 |  |  | > 59.2 |  |  | 84.2 |  |
| Cc1c(C(N=[N+]=[N-])c2ccc(F)cc2)nc(SC(C)C)[nH]c1=O (stereo unspecified) |  | 1090 |  |  | 0.29 |  |  | 320 |  |
| Cc1cc(C)cc(C(N=[N+]=[N-])c2nc(SC(C)C)[nH]c(=O)c2C(C)C)c1 (stereo unspecified) |  | > 878 |  |  | 0.38 |  |  | > 336 |  |
| CC(C)Sc1nc(C(N=[N+]=[N-])c2ccccc2)c(C(C)C)c(=O)[nH]1 (stereo unspecified) |  | > 780 |  |  | 0.47 |  |  | > 364 |  |
| Cc1ccc(C(N=[N+]=[N-])c2nc(SC(C)C)[nH]c(=O)c2C(C)C)cc1 (stereo unspecified) |  | > 667 |  |  | 0.52 |  |  | > 350 |  |
| Cc1c(C(N=[N+]=[N-])c2cccc3ccccc23)nc(SC(C)C)[nH]c1=O (stereo unspecified) | > 342 | > 1000 | 1.37 | 186 | 0.34 | > 342 | 5.27 | > 342 | > 342 |
| CCc1c(C(N=[N+]=[N-])c2ccccc2)nc(SC(C)C)[nH]c1=O (stereo unspecified) | 14.9 | > 2770 | 0.55 | 6.02 | 0.14 | 188 | 12.2 | > 379 | 6.03 |
| CCc1c(C(N=[N+]=[N-])c2ccc(-c3ccccc3)cc2)nc(SC(C)C)[nH]c1=O (stereo unspecified) | 16 |  | 0.37 | 4.41 | > 308 | 65.4 | 2.06 | > 308 | 20.9 |
| CC(C)Sc1nc(C(N=[N+]=[N-])c2ccc3ccccc3c2)c(C(C)C)c(=O)[nH]1 (stereo unspecified) | 7.39 | < 1 | 0.09 | 1.4 | > 4.78 | > 58.7 | 1.06 | 4.79 | 3.3 |
| Cc1ccnc2c1NC(=O)c1cccnc1N2C1CC1 [NEVIRAPINE] | > 15 |  |  | 7.71 |  | > 15 |  | > 15 |  |
| CCc1c(C(N=[N+]=[N-])c2ccc(OC(F)(F)F)cc2)nc(SC(C)C)[nH]c1=O (stereo unspecified) | 9.71 | > 50 | 0.26 | 60.4 | 6.02 | 62.2 | 29.5 | > 302 | 38.2 |
| CCc1c(C(N=[N+]=[N-])c2ccc(F)cc2)nc(SC(C)C)[nH]c1=O (stereo unspecified) |  | > 956 |  |  | 0.38 |  |  | > 360 |  |
| COc1cc(OC)cc(C(N=[N+]=[N-])c2nc(SC(C)C)[nH]c(=O)c2C)c1 (stereo unspecified) | 38.5 | > 983 | 1.54 | 9.85 | 0.34 | > 333 | 2.62 | > 333 | 107 |

| SMILES | EC50 [1] [µM] | selectivity ratio [2] | EC50 [3] [µM] | EC50 [4] [µM] | EC50 [5] [µM] | EC50 [6] [µM] | EC50 [7] [µM] | CC50 [8] [µM] | EC50 [9] [µM] |
| --- | --- | --- | --- | --- | --- | --- | --- | --- | --- |
| CC(C)Sc1nc(C(N=[N+]=[N-])c2ccc(Cl)cc2)c(C(C)C)c(=O)[nH]1 (stereo unspecified) |  | > 367 |  |  | 0.9 |  |  | > 331 |  |
| Cc1c(C(N=[N+]=[N-])c2ccc(OC(F)(F)F)cc2)nc(SC(C)C)[nH]c1=O (stereo unspecified) |  | > 63 |  |  | 4.93 |  |  | > 313 |  |
| Cc1c(C(N=[N+]=[N-])c2ccc(Br)cc2)nc(SC(C)C)[nH]c1=O (stereo unspecified) |  | > 1410 |  |  | 0.23 |  |  | > 317 |  |
| CCc1c(C(N=[N+]=[N-])c2cc(OC)cc(OC)c2)nc(SC(C)C)[nH]c1=O (stereo unspecified) |  | > 349 |  |  | 0.92 |  |  | > 321 |  |
| Cc1ccc(C(N=[N+]=[N-])c2nc(SC(C)C)[nH]c(=O)c2C)cc1 (stereo unspecified) |  | 93 |  |  | 0.083 |  |  | 7.73 |  |
| CCc1c(C(N=[N+]=[N-])c2cccc3ccccc23)nc(SC(C)C)[nH]c1=O (stereo unspecified) | > 10.2 | 81 | 7.34 | 17.1 | 0.96 | 55.8 | 9.18 | 77.7 | 71.6 |
| CCc1c(C(N=[N+]=[N-])c2ccc(Cl)cc2)nc(SC(C)C)[nH]c1=O (stereo unspecified) | > 127 | > 1310 | 0.81 | 95.2 | 0.26 | > 344 | 3.69 | > 344 | 14.3 |
| CCc1c(C(N=[N+]=[N-])c2ccc(Br)cc2)nc(SC(C)C)[nH]c1=O (stereo unspecified) | 95.7 | > 1040 | 1.86 | 65.2 | 0.29 | 160 | 10.4 | > 306 | 51.2 |
| CCc1c(C(N=[N+]=[N-])c2ccc3ccccc3c2)nc(SC(C)C)[nH]c1=O (stereo unspecified) |  | < 8 |  |  | 0.52 |  |  | 3.98 |  |
| Cc1cn([C@H]2C[C@H](N=[N+]=[N-])[C@@H](CO)O2)c(=O)[nH]c1=O [ZIDOVUDINE] | 0.026 | > 236 |  | 0.023 |  |  | 0.012 | > 7.06 | 0.024 |
| COc1cc(OC)cc(C(N=[N+]=[N-])c2nc(SC(C)C)[nH]c(=O)c2C(C)C)c1 (stereo unspecified) | 58.9 | 55 | 4.56 | 54.7 | 1.78 | 63.1 | 10.2 | 97.6 | > 139 |
| Cc1c(C(N=[N+]=[N-])c2ccc(-c3ccccc3)cc2)nc(SC(C)C)[nH]c1=O (stereo unspecified) |  |  |  |  | > 319 |  |  | > 319 |  |
| CC(C)Sc1nc(C(N=[N+]=[N-])c2ccc(Br)cc2)c(C(C)C)c(=O)[nH]1 (stereo unspecified) | > 32.2 | 23 | 3.69 | > 32.2 | 1.45 | > 32.3 | 1.44 | 32.8 | 8.2 |
| Cc1c(C(N=[N+]=[N-])c2ccc(Cl)cc2)nc(SC(C)C)[nH]c1=O (stereo unspecified) | > 357 | > 1650 | 3.61 | > 357 | 0.22 | > 357 | 11 | > 357 | 61.1 |
| Cc1c(C(N=[N+]=[N-])c2ccccc2)nc(SC(C)C)[nH]c1=O (stereo unspecified) | > 396 | > 7190 | 2.66 | > 396 | 0.055 | > 396 | 10.6 | > 396 | > 387 |
| CC(C)Sc1nc(C(N=[N+]=[N-])c2ccc(F)cc2)c(C(C)C)c(=O)[nH]1 (stereo unspecified) |  | > 298 |  |  | 1.16 |  |  | > 346 |  |
